The results in this text go back to ChEMBL document CHEMBL1201862, “PubChem BioAssay data set” (2004).

Assay [1] is described as follows: viability of uninfected HEp-2 cells – cell-based, HTS, cytotoxicity control for RSV inhibitor project, dose response (AID 2410). The conditions noted are these: human respiratory syncytial virus. In kind it is functional.
The test system of assay [2] is BJ. The assay is described as follows: BJ-TERT fibroblast viability loss – cell-based, RAS-independent, luminescence, dose response (AID 1933). In kind it is functional. The settings on record: Homo sapiens.
Assay [3] concerns the target T1, SUMO-activating enzyme (Homo sapiens, UniProt Q9UBT2). Nature of the assay: blockers of UBC9-mediated SUMO conjugation – biochemical, AlphaScreen, SUMOylation inhibitor project, confirmation (AID 2018). In kind it is functional.
The test system of assay [4] is BJ. The assay is described as follows: cells. In kind it is functional, cell-based. The settings on record: Homo sapiens.
The target in assay [5] is T1, SUMO-activating enzyme. Nature of the assay: blockers of SAE1/SAE2–UBC9 SUMO transfer – biochemical, HTRF, uHTS, primary screen (AID 2006). In kind it is protein-complex assay.
The target in another assay is Galanin receptor type 2 (Homo sapiens, UniProt O43603). The assay is described as follows: Dose Response cell-based high-throughput screening assay to identify agonists of galanin receptor 2 (GALR2). [Related pubchem assays: 864 ]. It is filed as functional.
Sequence of Galanin receptor type 2 (O43603 whole entry): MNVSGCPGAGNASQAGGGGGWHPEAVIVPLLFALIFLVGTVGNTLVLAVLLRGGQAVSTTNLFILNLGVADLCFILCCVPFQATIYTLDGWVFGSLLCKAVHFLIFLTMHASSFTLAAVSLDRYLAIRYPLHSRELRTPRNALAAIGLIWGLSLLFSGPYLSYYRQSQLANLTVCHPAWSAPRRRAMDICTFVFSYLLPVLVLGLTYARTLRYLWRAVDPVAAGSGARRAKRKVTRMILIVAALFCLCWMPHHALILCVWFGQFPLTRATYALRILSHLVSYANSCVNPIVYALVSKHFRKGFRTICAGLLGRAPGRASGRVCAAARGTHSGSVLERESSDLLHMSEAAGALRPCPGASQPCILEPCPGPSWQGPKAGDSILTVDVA
Assay [6] has as its system BJ. The assay is described as follows: BJ-TERT-LT-ST fibroblast viability loss – cell-based, RAS-independent, luminescence, dose response (AID 1935).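 Also: BJ fibroblasts immortalized with TERT plus LT and ST oncogenes.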 The conditions noted are these: Homo sapiens. It is filed as functional.
A short description of assay [7]: DRD fibroblast viability loss – cell-based, non-viral oncogenic, luminescence, dose response (AID 1934). The settings on record: Homo sapiens. In kind it is functional.
In assay [8] the target is Mothers against decapentaplegic homolog 3 (Homo sapiens, UniProt P84022). The assay is described as follows: blockers of Smad3 complex formation in lysate – cell lysate, secondary confirmation, chemiluminescent ELISA, HEK293 lysate, dose response (AID 1058). In kind it is functional.
Sequence of Mothers against decapentaplegic homolog 3 (P84022 whole entry): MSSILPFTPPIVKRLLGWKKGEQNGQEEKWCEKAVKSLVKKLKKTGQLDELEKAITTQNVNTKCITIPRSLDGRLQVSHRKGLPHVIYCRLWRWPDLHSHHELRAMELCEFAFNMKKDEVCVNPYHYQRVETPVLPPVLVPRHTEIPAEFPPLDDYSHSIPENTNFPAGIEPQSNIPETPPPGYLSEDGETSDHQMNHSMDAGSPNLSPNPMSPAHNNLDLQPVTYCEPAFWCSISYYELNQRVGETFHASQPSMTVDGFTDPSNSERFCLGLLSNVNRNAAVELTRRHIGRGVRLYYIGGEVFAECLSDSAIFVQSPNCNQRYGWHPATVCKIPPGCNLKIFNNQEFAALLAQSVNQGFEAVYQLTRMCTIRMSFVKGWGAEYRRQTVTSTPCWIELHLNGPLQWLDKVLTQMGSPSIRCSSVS
Assay [9] can be described thus: Luminescence-based dose response cell-based high throughput screening assay for cytotoxic compounds using the IEC-6 intestinal epithelial cell line. [Related pubchem assays: 1858 (Summary AID.), 1825 (Counterscreen.), 1907 (Confirmation screen.)]. It is filed as functional.
Assay [10] can be described thus: Counterscreen for IDE inhibitors: Luminescence-based cell-based high throughput dose response assay to identify compounds that are cytotoxic to HEK cells. [Related pubchem assays: 434962 (Primary screen (IDE inhibitors in singlicate)), 449730 (Counterscreen (Cytotoxicity in triplicate)), 435028 (Confirmation (IDE inhibitors in triplicate)) …. It is filed as functional. The conditions noted are these: HEK293.

A further assay has as its target T2, Insulin-degrading enzyme (Homo sapiens, UniProt P14735).
T2 sequence (P14735 whole entry): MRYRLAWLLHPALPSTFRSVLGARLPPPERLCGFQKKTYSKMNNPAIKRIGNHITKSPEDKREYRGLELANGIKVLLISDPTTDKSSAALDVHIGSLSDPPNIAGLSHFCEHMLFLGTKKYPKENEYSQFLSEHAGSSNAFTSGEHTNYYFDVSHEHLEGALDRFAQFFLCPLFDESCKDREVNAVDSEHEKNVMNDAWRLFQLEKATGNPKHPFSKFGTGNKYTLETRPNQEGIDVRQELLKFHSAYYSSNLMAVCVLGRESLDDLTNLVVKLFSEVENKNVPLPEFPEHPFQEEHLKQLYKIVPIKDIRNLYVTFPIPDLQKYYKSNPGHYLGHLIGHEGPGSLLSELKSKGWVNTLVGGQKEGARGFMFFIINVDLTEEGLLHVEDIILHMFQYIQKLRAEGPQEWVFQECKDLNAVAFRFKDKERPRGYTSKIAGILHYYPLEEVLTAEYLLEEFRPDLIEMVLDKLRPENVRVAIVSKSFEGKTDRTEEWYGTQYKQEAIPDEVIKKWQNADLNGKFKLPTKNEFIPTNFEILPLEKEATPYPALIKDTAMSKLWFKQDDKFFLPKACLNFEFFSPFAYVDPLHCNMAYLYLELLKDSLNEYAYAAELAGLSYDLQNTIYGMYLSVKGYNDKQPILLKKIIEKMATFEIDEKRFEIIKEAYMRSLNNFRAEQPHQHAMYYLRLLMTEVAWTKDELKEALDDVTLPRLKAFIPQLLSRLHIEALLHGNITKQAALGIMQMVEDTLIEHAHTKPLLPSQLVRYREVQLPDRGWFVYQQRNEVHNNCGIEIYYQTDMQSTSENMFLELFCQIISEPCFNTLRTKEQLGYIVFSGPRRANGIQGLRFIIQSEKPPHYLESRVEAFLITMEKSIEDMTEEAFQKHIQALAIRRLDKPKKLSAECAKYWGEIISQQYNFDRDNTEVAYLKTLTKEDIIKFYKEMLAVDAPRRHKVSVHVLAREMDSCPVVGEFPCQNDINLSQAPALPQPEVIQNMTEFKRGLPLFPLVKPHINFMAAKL
The assay is described as follows: Dose Response: Fluorescence polarization-based cell-based high throughput dose response assay for inhibitors of insulin-degrading enzyme (IDE). [Related pubchem assays: 434962 (Primary screen (IDE inhibitors in singlicate)), 449730 (Counterscreen (Cytotoxicity in triplicate)), 435028 (Confirmation (IDE inhibitors in triplicate)), 434984 (Summary …. In kind it is functional.

Assay [11] has as its target Dual specificity tyrosine-phosphorylation-regulated kinase 1A (Rattus norvegicus, UniProt Q63470). It is filed as biochemical, Homo sapiens.
In a further assay the target is Vasopressin V1a receptor (Homo sapiens, UniProt P37288). Nature of the assay: Counterscreen for Oxytocin Receptor (OXTR) agonists: Fluorescence-based cell-based high throughput dose response assay to identify agonists of the vasopressin 1 receptor (V1R). [Related pubchem assays: 2435 (Primary screen (OXTR agonists in singlicate)), 434991 (Counterscreen (V1R agonists in triplicate)), 2482 (Summary (OXTR agonists)) …. It is filed as functional.
Sequence of Vasopressin V1a receptor (P37288 whole entry): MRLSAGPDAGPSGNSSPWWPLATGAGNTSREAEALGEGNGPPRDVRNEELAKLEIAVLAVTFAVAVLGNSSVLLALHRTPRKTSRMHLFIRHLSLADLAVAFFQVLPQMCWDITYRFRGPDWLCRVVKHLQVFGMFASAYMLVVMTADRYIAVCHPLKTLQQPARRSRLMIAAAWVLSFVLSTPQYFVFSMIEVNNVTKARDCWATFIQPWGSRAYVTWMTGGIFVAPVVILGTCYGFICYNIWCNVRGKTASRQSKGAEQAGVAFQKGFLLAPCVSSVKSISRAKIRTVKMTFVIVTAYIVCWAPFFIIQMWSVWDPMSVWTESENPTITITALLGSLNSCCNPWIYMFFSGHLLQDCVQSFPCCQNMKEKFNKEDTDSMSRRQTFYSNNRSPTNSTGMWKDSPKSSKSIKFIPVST

The next assay concerns the target Oxytocin receptor (Homo sapiens, UniProt P30559). Nature of the assay: Fluorescence-based cell-based high throughput dose response assay for agonists of the Oxytocin Receptor (OXTR). [Related pubchem assays: 2435 (Primary screen (OXTR agonists in singlicate)), 434991 (Counterscreen (V1R agonists in triplicate)), 2482 (Summary (OXTR agonists)), 434963 (Confirmation screen (OXTR agonists in triplicate))]. In kind it is functional.

Assay [12] deals with T3, Cytochrome P450 2C19 (Homo sapiens, UniProt P33261). Nature of the assay: qHTS Assay for Inhibitors and Substrates of Cytochrome P450 2C19. [Related pubchem assays: 410 ]. The settings on record: read-out: Potency. It is filed as ADME.
T3 sequence (P33261 whole entry): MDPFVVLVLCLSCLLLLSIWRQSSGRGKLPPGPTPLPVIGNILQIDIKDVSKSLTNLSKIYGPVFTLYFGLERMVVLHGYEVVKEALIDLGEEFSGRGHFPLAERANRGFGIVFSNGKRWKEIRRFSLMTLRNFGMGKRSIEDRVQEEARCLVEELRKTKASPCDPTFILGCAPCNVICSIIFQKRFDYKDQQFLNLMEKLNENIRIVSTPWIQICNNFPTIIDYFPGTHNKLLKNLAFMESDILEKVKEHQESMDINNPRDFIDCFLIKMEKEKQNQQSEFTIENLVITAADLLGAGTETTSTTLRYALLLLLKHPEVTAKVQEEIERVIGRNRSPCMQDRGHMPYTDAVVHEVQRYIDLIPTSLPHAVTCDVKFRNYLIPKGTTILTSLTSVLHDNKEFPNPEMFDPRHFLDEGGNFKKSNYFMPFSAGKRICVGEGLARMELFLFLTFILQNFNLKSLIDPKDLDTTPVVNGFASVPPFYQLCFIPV
Assay [13] concerns Streptococcus sp. 'group A'. The assay is described as follows: Streptococcus pyogenes SK(-)GAS viability under kanamycin – luminescence, BacTiterGlo, confirmation, counter-screen for streptokinase expression inhibitor project, dose response (AID 1900). The settings on record: Streptococcus sp. 'group A'. In kind it is functional, organism-based.
The next assay addresses T4, Streptokinase A (Streptococcus pyogenes serotype M1, UniProt P10520).
T4 sequence (P10520 whole entry): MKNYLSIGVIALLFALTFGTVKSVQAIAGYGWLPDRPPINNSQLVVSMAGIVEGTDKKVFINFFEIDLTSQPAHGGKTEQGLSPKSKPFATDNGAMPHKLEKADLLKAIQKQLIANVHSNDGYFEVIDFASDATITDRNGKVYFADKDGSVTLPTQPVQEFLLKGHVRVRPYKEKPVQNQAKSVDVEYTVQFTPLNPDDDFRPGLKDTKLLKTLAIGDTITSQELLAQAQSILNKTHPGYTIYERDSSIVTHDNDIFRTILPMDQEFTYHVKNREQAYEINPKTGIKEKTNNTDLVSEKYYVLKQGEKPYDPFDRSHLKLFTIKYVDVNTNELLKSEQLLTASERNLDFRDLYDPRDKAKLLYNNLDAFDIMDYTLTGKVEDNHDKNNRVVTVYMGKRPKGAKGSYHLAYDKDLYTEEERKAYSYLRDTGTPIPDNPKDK
Nature of the assay: viability-normalized secreted streptokinase activity reduction – plasminogen activation absorbance, OD405, dose response (AID 1914).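 Also: secreted streptokinase activity via plasminogen activation per viability signal from cell pellet.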 It is filed as functional, Streptococcus pyogenes M1 GAS.

A further assay relates to Streptococcus. The assay is described as follows: GAS UMAA2166 growth inhibition – luminescence, BacTiterGlo, counter-screen for streptokinase expression inhibitor project, dose response (AID 1915).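 Also: potency for reduction of bacterial viability or growth.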 It is filed as functional, organism-based. The settings on record: Streptococcus.
Assay [14] deals with T3, Cytochrome P450 2C19. The assay is described as follows: Cytochrome panel assay with activity outcomes. Panel member name: p450-cyp2c19 Compounds with AC50 equal or less than 10 uM are considered active. It is filed as functional. The conditions noted are these: read-out: AC50.
In assay [15] the target is T5, Cytochrome P450 3A4 (Homo sapiens, UniProt P08684). The conditions noted are these: Potency.
T5 sequence (P08684 whole entry): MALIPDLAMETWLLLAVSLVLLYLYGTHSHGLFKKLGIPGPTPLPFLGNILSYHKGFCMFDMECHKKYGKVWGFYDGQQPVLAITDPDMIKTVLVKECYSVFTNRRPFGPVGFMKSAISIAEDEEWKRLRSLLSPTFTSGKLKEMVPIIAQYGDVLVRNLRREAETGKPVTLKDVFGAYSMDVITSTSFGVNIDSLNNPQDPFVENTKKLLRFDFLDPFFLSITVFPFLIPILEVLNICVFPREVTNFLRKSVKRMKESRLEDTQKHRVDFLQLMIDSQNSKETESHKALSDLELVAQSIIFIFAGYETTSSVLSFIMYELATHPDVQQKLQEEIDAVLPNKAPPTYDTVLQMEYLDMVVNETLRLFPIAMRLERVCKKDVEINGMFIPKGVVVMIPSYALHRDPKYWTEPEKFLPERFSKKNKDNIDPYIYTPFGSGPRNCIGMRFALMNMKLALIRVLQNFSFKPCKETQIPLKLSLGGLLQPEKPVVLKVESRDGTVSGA
Assay [16] addresses T5, Cytochrome P450 3A4.
For assay [17], the target named is Voltage-gated inwardly rectifying potassium channel KCNH2 (Homo sapiens, UniProt Q12809). The settings on record: Potency.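 Also: confirmatory quantitative high-throughput screen measuring inhibition of hERG channel activity.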
Sequence of Voltage-gated inwardly rectifying potassium channel KCNH2 (Q12809 whole entry): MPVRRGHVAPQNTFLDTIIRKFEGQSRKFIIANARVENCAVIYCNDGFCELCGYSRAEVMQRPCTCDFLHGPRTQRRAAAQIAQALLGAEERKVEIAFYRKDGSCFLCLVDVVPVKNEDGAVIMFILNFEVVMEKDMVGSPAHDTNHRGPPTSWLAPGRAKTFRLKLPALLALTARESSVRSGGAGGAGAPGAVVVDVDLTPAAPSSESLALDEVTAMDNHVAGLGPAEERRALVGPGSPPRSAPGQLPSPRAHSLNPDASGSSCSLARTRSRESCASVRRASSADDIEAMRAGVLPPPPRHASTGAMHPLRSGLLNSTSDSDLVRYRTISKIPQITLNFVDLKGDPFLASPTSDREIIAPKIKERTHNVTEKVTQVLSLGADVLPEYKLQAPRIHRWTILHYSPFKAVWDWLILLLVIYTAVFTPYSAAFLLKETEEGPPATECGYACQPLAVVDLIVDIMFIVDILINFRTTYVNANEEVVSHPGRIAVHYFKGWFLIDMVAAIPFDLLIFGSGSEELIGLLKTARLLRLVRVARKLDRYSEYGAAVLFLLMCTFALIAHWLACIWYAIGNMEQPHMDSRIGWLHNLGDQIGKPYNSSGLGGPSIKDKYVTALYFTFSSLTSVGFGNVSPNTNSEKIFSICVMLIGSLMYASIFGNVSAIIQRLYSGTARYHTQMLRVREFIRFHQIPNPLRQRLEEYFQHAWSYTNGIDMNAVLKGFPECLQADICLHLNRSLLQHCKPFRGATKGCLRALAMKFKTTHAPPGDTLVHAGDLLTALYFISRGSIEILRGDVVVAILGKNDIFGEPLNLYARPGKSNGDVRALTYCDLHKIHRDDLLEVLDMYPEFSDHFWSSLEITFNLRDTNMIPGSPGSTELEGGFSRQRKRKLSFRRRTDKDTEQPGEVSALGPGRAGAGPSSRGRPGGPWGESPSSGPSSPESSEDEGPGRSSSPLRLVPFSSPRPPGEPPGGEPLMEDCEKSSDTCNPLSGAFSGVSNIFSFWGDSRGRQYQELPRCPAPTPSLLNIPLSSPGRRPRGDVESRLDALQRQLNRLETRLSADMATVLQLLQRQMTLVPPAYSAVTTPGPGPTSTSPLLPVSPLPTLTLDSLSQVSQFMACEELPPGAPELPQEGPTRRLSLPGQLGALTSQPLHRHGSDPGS

Each structure is given as a SMILES string. The source made the active and inactive calls.

T1 sequence (Q9UBE0 whole entry): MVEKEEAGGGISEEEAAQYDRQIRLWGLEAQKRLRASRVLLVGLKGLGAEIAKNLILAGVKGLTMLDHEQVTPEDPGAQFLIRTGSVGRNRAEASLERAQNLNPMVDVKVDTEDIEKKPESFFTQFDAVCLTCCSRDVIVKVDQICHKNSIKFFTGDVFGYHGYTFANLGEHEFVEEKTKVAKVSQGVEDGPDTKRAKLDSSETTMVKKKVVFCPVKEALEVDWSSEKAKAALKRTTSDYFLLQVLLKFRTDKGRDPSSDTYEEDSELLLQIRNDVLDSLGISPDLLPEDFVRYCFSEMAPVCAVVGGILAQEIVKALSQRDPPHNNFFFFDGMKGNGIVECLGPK
T1 sequence (Q9UBT2 whole entry): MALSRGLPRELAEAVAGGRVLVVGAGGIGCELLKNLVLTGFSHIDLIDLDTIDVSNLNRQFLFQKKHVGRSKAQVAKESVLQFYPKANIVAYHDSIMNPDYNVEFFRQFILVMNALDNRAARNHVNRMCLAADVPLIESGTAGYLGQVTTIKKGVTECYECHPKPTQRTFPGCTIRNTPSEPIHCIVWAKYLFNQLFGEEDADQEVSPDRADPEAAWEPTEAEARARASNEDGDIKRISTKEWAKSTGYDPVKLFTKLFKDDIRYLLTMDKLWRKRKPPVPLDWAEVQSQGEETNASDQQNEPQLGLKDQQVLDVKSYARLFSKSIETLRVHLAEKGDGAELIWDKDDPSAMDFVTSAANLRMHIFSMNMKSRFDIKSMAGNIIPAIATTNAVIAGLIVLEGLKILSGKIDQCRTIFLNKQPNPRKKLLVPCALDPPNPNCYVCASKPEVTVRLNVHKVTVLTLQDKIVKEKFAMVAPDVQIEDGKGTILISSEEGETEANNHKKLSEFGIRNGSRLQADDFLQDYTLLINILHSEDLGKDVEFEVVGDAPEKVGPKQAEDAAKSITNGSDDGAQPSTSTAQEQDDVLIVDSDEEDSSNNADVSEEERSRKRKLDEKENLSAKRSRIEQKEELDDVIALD
Sequence of Oxytocin receptor (P30559 whole entry): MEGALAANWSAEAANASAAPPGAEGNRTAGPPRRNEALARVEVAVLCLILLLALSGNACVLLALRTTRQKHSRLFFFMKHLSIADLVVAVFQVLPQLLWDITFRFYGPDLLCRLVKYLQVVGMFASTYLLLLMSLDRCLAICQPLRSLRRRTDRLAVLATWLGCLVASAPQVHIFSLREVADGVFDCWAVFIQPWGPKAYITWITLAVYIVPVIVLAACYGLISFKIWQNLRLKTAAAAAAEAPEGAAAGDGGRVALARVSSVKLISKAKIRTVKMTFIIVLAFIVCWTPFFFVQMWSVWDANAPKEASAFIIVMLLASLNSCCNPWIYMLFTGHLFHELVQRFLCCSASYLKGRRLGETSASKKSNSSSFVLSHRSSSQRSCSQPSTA

As for `c1nc2cc(Cc3ccc4[nH]cnc4c3)ccc2[nH]1`, in assay [1], the CC50 was > 50 µM (active). The IC50 in “cells” is 44.5 µM (active).
On to `Cc1ccc2nsnc2c1NC(=O)c1ccc(-c2cc(Cl)ccc2Cl)o1`, for which the EC50 is 3.86 µM (inconclusive) in the assay on BJ [2]; 14.4 µM (inconclusive) in the assay with BJ [4]; > 55.7 µM (not active) on Galanin receptor type 2; 6.11 µM (inconclusive) in the assay with BJ [6]; 5.89 µM (active) in assay [7]. Also, the IC50 at SUMO-activating enzyme [3] was 18 µM (active); at SUMO-activating enzyme [5] it was 4.64 µM (active).
For `COc1ccc(C(c2cc3c(cc2O)OCO3)N2CCCCC2)c(OC)c1` (centres undefined), the IC50 in [8] is > 40 µM (not active).
For the molecule `CCN1CCCC1CNC(=O)C1CCN(Cc2nc(-c3cccc(Br)c3)oc2C)CC1` (centres undefined), the IC50 in assay [9] was 6.51 µM (active).
As to `COc1ccc2c(Cl)c(C(=O)N/N=C3\CCCC(=O)C3)sc2c1`, the values for the IC50 (in assay [10]; on Insulin-degrading enzyme) were 26.2 µM (not active) and > 55.9 µM (not active), respectively. The AC50 in assay [11] is 1.98 µM (active).
For the molecule `Oc1ccc(Cl)cc1CNCc1ccc(Cl)nc1`, the EC50 on Vasopressin V1a receptor is 17.5 µM (not active); at Oxytocin receptor it was 19.5 µM (not active).
On to `CCCN(CC1CC1)c1nc(C)nc(Nc2c(Cl)cc(Cl)cc2Cl)c1Cl`, for which the AC50 at Cytochrome P450 2C19 [12] is 7.94 µM (inconclusive); at Cytochrome P450 2C19 [14] it was 31.6 µM (inconclusive); at Cytochrome P450 3A4 [15] it was 12.6 µM (inconclusive); at Cytochrome P450 3A4 [16] it was 15.8 µM (inconclusive); in assay [17], 14.1 µM (inconclusive). Besides, the EC50 in [13] is 1.39 µM (active); on Streptokinase A, 1.31 µM (active); in the assay on Streptococcus it was 15.2 µM (active).
